In PubChem BioAssay (NCI):
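Where inhibition never reached the appropriate level, the endpoint shown equals the highest concentration tested. Otherwise, values were interpolated linearly from a five-concentration, 48-hour dose response in 96-well plates. TGI: total growth inhibition.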 Where a SMILES comes first, the peptide text is derived from it. The star is where a group is joined. Cbz = O=C(OCc1ccccc1)*

Tests used:
Experiment in all cases: inhibition of tumour cell growth, NCI panel, 48 h
786-0 renal = test system: 786-0 renal
EKVX NSCLC = test system: EKVX NSCLC
DU-145 prostate = test system: DU-145 prostate
SF-539 CNS = test system: SF-539 CNS
MOLT-4 leukemia = test system: MOLT-4 leukemia
SK-MEL-28 melanoma = test system: SK-MEL-28 melanoma
HT29 colon = test system: HT29 colon
PC-3 prostate = test system: PC-3 prostate
HOP-92 NSCLC = test system: HOP-92 NSCLC
SK-MEL-2 melanoma = test system: SK-MEL-2 melanoma
RXF 393 renal = test system: RXF 393 renal
MDA-MB-435 = test system: MDA-MB-435
SK-MEL-5 melanoma = test system: SK-MEL-5 melanoma
TK-10 renal = test system: TK-10 renal
SNB-19 CNS = test system: SNB-19 CNS
HCC-2998 colon = test system: HCC-2998 colon
A549 NSCLC = test system: A549 NSCLC
UACC-62 melanoma = test system: UACC-62 melanoma
MALME-3M melanoma = test system: MALME-3M melanoma

Structure (SMILES) | TGI (786-0 renal) [µM] | TGI (EKVX NSCLC) [µM] | TGI (DU-145 prostate) [µM] | TGI (SF-539 CNS) [µM] | TGI (MOLT-4 leukemia) [µM] | TGI (SK-MEL-28 melanoma) [µM] | TGI (HT29 colon) [µM] | TGI (PC-3 prostate) [µM] | TGI (HOP-92 NSCLC) [µM] | TGI (SK-MEL-2 melanoma) [µM] | TGI (RXF 393 renal) [µM] | TGI (MDA-MB-435) [µM] | TGI (SK-MEL-5 melanoma) [µM] | TGI (TK-10 renal) [µM] | TGI (SNB-19 CNS) [µM] | TGI (HCC-2998 colon) [µM] | TGI (A549 NSCLC) [µM] | TGI (UACC-62 melanoma) [µM] | TGI (MALME-3M melanoma) [µM]
CSCCCCCCCCCCOc1ccc(C=C2C(=C(C#N)C#N)c3ccccc3C2=C(C#N)C#N)cc1 | 37.4 | 34.5 | 28.9 | 37.3 | 64.5 | 29.6 | 31 | 31.4 | 26.9 | 36.7 | 35.1 | 32.9 | 31.9 | 36.1 | – | – | – | – | –
Cc1cc2c(-c3ccccc3)cc(=O)[nH]c2cc1N | > 100 | > 100 | > 100 | > 100 | > 100 | > 100 | > 100 | > 100 | > 100 | > 100 | > 100 | > 100 | > 100 | – | > 100 | > 100 | > 100 | > 100 | –
Cc1ccc(S(=O)(=O)N/N=C2\C=C[C@]3(CC2)C(=O)N(C)c2ccccc23)cc1 | > 100 | > 100 | > 100 | – | > 100 | > 100 | – | > 100 | > 100 | > 100 | > 100 | > 100 | > 100 | – | > 100 | > 100 | > 100 | > 100 | –
CC(C)(C)OC(=O)NC(Cc1ccc([N+](=O)[O-])cc1)C(=O)NC(CCCCNC(=O)OCc1ccccc1)C(=O)ON1C(=O)CCC1=O (stereo unspecified) | > 100 | > 100 | > 100 | > 100 | > 100 | > 100 | > 100 | > 100 | > 100 | – | > 100 | > 100 | > 100 | > 100 | > 100 | 79.4 | > 100 | > 100 | > 100
C#CCOC(=O)c1ccccc1OC(C)=O | > 100 | > 100 | > 100 | > 100 | > 100 | – | – | > 100 | > 100 | > 100 | > 100 | > 100 | > 100 | > 100 | > 100 | – | – | > 100 | –
c1ccc(-c2cc(-c3cc(-c4ccccc4)n(-c4ccccc4)n3)nn2-c2ccccc2)cc1 | > 100 | > 100 | > 100 | > 100 | > 100 | – | > 100 | > 100 | – | > 100 | > 100 | > 100 | > 100 | > 100 | > 100 | > 100 | > 100 | > 100 | > 100
CC(=O)OC[C@@]12C[C@H]3C(=O)C(C)(C)C[C@H]3[C@]1(C)[C@@H](OC(C)=O)[C@]1(O)[C@H]([C@@H](OC(=O)c3ccccc3)[C@@H](C)[C@H]1OC(C)=O)[C@H]2OC(C)=O | > 20 | > 20 | > 20 | > 20 | > 20 | – | – | > 20 | > 20 | > 20 | > 20 | > 20 | > 20 | > 20 | > 20 | > 20 | – | > 20 | –
CCOC(=O)CCC(NC(=O)OCc1ccccc1)C(=O)NC(CCC(=O)OCC)C(=O)NC(CCC(=O)OCC)C(=O)NC(CCC(=O)OCC)C(=O)NC(CCC(=O)OCC)C(=O)OCC (stereo unspecified) | > 100 | > 100 | > 100 | – | > 100 | > 100 | > 100 | > 100 | – | > 100 | > 100 | > 100 | > 100 | > 100 | – | – | > 100 | > 100 | > 100
Cc1nc2c(-c3ccccc3)[nH]c(C)c2c(=O)o1 | > 100 | > 100 | > 100 | > 100 | > 100 | > 100 | > 100 | > 100 | > 100 | > 100 | > 100 | > 100 | > 100 | > 100 | > 100 | > 100 | > 100 | > 100 | –
CC(C)[Si]1(C(C)C)OCC2OC(n3ccc(=O)[nH]c3=O)C(O)(CO)C2O[Si](C(C)C)(C(C)C)O1 (stereo unspecified) | 29.3 | 27.4 | 32.4 | 32.2 | 69.1 | 36.7 | 28.7 | 25.9 | 22.6 | 31 | 30.4 | 31.6 | 28.4 | 31.3 | 28.9 | – | 27.9 | 29.2 | 28.4
COc1ccc(C)cc1NC(=S)N/N=C/c1ccc(SC)cc1 | > 100 | – | > 100 | 89.9 | > 100 | > 100 | > 100 | > 100 | > 100 | > 100 | > 100 | > 100 | 51.9 | – | > 100 | – | > 100 | > 100 | > 100
CCOC(=O)C(C)NC(=O)C(C)NC(=O)C(C)NC(=O)C(C)NC(=O)C(C)NC(=O)C(C)NC(=O)C(C)NC(=O)OCc1ccccc1 (stereo unspecified) (Cbz-AAAAAAA-OEt; configuration not given here) | > 100 | > 100 | > 100 | > 100 | > 100 | > 100 | > 100 | > 100 | > 100 | – | > 100 | > 100 | > 100 | > 100 | > 100 | > 100 | > 100 | > 100 | > 100
CC(C)(C)/C(O)=C\c1nc2cc(C(F)(F)F)ccc2[nH]c1=O | > 100 | > 100 | > 100 | – | – | > 100 | > 100 | > 100 | > 100 | > 100 | > 100 | > 100 | > 100 | > 100 | > 100 | – | > 100 | > 100 | > 100
